The IC50 is the concentration at which inhibition is half-maximal.

The source of these data is US20060069123A1, “Substituted dipiperidine CCR2 antagonists” (priority 2004, published 2006).

The test system of test [1] is THP-1 cells. The settings on record: Homo sapiens, THP-1, read-out: Inhibition of MCP-1 Induced Calcium Ion Influx IC50.
The target of another test is T1, CCR2 (Homo sapiens, UniProt P41597).
T1 sequence (P41597 1-360 isoform P41597-2): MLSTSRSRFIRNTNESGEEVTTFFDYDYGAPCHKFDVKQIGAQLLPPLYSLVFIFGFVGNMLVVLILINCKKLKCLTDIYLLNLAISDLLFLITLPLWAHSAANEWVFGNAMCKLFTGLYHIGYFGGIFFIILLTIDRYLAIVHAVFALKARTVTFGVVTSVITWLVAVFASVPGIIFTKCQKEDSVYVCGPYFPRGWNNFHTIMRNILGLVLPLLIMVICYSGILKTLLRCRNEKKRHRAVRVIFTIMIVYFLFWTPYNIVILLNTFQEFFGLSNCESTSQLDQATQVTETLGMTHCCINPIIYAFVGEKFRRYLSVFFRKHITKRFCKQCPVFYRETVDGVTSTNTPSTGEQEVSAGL

Test [2] relates to THP-1 cells. Briefly: MCP-1 Induced Chemotaxis in THP-1 Cells. The test is classed as cell-based. The settings on record: Homo sapiens; THP-1 cells, MCP-1 0.01 μg/mL, 3 hours; read-out: Inhibition of MCP-1 Induced Chemotaxis IC50.

SMILES strings stand for the structures. Where two headings read alike, the source gives them in different places.

With `O=C(/C=C/c1cc(F)c(F)c(F)c1)N1CCC(C(CO)N2CCC(c3c[nH]c4ncccc34)CC2)CC1` (stereo not drawn) [Cpd 153, (2E)-1-(4-{2-hydroxy-1-[4-(1H-pyrrolo[2,3-b]pyridin-3-yl)-piperidin-1-yl]-ethyl}-piperidin-1-yl)-3-(3,4,5-trifluoro-phenyl)-propenone], the values for the IC50 in the test on THP-1 cells [1], against CCR2 and in the test with THP-1 cells [2] were 0.007 µM, 0.003 µM and 0.009 µM, respectively.
On to `CC(=O)OCC(C1CCN(C(=O)/C=C/c2ccc(Cl)c(Cl)c2)CC1)N1CCC(c2c[nH]c3ccccc23)CC1` (stereo not drawn) [Cpd 237, acetic acid 2-{1-[(2E)-3-(3,4-dichloro-phenyl)-acryloyl]-piperidin-4-yl}-2-[4-(1H-indol-3-yl)-piperidin-1-yl]-ethyl ester], for which the IC50 was 0.07 µM in the test on THP-1 cells [1], 0.215 µM on CCR2 and 0.11 µM in the test on THP-1 cells [2].
As for `O=C(/C=C/c1ccc(F)cc1)N1CCC(C(CO)N2CCC(c3c[nH]c4ccc(F)cc34)CC2)CC1` (stereo not drawn) [Cpd 169, (2E)-1-(4-{1-[4-(5-fluoro-1H-indol-3-yl)-piperidin-1-yl]-2-hydroxy-ethyl}-piperidin-1-yl)-3-(4-fluoro-phenyl)-propenone], the IC50 with THP-1 cells [1] worked out at 0.17 µM; against CCR2 it was 0.057 µM; in the test with THP-1 cells [2] it was 0.055 µM.
On to `O=C(O)C(C1CCN(C(=O)Nc2cccc(C(F)(F)F)c2)CC1)N1CCC(c2c[nH]c3ccccc23)CC1` (stereo not drawn) [Cpd 97, [4-(1H-indol-3-yl)-piperidin-1-yl]-[1-(3-trifluoromethyl-phenylcarbamoyl)-piperidin-4-yl]-acetic acid], for which the IC50 with THP-1 cells [1] was 0.97 µM; at CCR2, 0.25 µM; in the test on THP-1 cells [2], 0.23 µM.
For `O=C(/C=C/c1cc(F)cc(F)c1)N1CCC(C(CO)N2CCC(c3ccc4c(c3)OCO4)CC2)CC1` (stereo not drawn) [Cpd 190], in that order: 0.25 µM, 0.21 µM and 0.2 µM.
The like results for `O=C(O)c1ccc2[nH]cc(C3CCN(C(C(=O)O)C4CCN(C(=O)/C=C/c5cc(F)c(F)c(F)c5)CC4)CC3)c2c1` (stereo not drawn) [Cpd 147, 3-[1-(carboxy-{1-[(2E)-3-(3,4,5-trifluoro-phenyl)-acryloyl]-piperidin-4-yl}-methyl)-piperidin-4-yl]-1H-indole-5-carboxylic acid] were, in that order, 0.6 µM, 0.15 µM and 0.04 µM.
Take `O=C(/C=C/c1cc(F)c(F)c(F)c1)N1CCC([C@H](CO)N2CCC(c3c[nH]c4ccccc34)CC2)CC1` [Cpd 188, (2E)-1-(4-{(1R)-2-hydroxy-1-[4-(1H-indol-3-yl)-piperidin-1-yl]-ethyl}-piperidin-1-yl)-3-(3,4,5-trifluoro-phenyl)-propenone]: the IC50 in the test on THP-1 cells [1] stood at 0.01 µM; at CCR2, 0.0295 µM; with THP-1 cells [2], 0.02 µM.
For `O=C(Nc1ccc(Cl)c(Cl)c1)N1CCC(C(CO)N2CCC(c3c[nH]c4ccccc34)CC2)CC1` (stereo not drawn) [Cpd 123, 4-{2-hydroxy-1-[4-(1H-indol-3-yl)-piperidin-1-yl]-ethyl}-piperidine-1-carboxylic acid (3,4-dichloro-phenyl)-amide], in that order: 0.004 µM, 0.009 µM and 0.005 µM.
On to `O=C(O)C(C1CCN(C(=O)/C=C/c2cccs2)CC1)N1CCC(c2c[nH]c3ccccc23)CC1` (stereo not drawn) [Cpd 103, [4-(1H-indol-3-yl)-piperidin-1-yl]-{1-[(2E)-3-thiophen-2-yl-acryloyl]-piperidin-4-yl}-acetic acid], for which the IC50 came out at 0.49 µM in the test with THP-1 cells [1], 0.07 µM on CCR2 and 0.09 µM with THP-1 cells [2].
Take `CC(=O)NCC(C1CCN(C(=O)Nc2ccc(Cl)c(Cl)c2)CC1)N1CCC(c2c[nH]c3ccccc23)CC1` (stereo not drawn) [Cpd 217]: the results for the IC50 in the test on THP-1 cells [1], against CCR2 and in the test with THP-1 cells [2] were 2 µM, 0.21 µM and 0.62 µM, respectively.
Consider `O=C(/C=C/c1cc(F)cc(F)c1)N1CCC(C(CO)N2CCC(c3c[nH]c4ncccc34)CC2)CC1` (stereo not drawn) [Cpd 202, (2E)-3-(3,5-difluoro-phenyl)-1-(4-{2-hydroxy-1-[4-(1H-pyrrolo[2,3-b]pyridin-3-yl)-piperidin-1-yl]-ethyl}-piperidin-1-yl)-propenone], for which the figures for the IC50 with THP-1 cells [1], at CCR2 and with THP-1 cells [2] were 0.008 µM, 0.0193 µM and 0.015 µM, respectively.
Take `CC(=O)NCC(C1CCN(C(=O)/C=C/c2cccc(C)c2)CC1)N1CCC(c2c[nH]c3ccccc23)CC1` (stereo not drawn) [Cpd 216]: the IC50 was 1.8 µM in the test on THP-1 cells [1], 0.25 µM at CCR2 and 0.7 µM with THP-1 cells [2].
For `O=C(/C=C/c1cc(F)c(F)c(F)c1)N1CCC(C(CO)N2CCC(c3ccc4c(c3)OCO4)CC2)CC1` (stereo not drawn) [Cpd 189, (2E)-1-{4-[1-(4-benzo[1,3]dioxol-5-yl-piperidin-1-yl)-2-hydroxy-ethyl]-piperidin-1-yl}-3-(3,4,5-trifluoro-phenyl)-propenone], in that order: 0.16 µM, 0.17 µM and 0.72 µM.
The like results for `O=C(O)C(C1CCN(C(=O)/C=C/c2ccsc2)CC1)N1CCC(c2c[nH]c3ccccc23)CC1` (stereo not drawn) [Cpd 104, [4-(1H-indol-3-yl)-piperidin-1-yl]-{1-[(2E)-3-thiophen-3-yl-acryloyl]-piperidin-4-yl}-acetic acid] were, in that order, 1.01 µM, 0.09 µM and 0.16 µM.
For `O=C(/C=C/c1cc(F)cc(F)c1)N1CCC(C(CO)N2CCC(c3c[nH]c4c3ccc[n+]4[O-])CC2)CC1` (stereo not drawn) [Cpd 205, (2E)-3-(3,5-difluoro-phenyl)-1-(4-{2-hydroxy-1-[4-(7-oxy-1H-pyrrolo[2,3-b]pyridin-3-yl)-piperidin-1-yl]-ethyl}-piperidin-1-yl)-propenone], in that order: 0.02 µM, 0.04 µM and 0.04 µM.
As to `COc1ccc2[nH]cc(C3CCN(C(CO)C4CCN(C(=O)/C=C/c5ccc(Cl)c(Cl)c5)CC4)CC3)c2c1` (stereo not drawn) [Cpd 162, (2E)-3-(3,4-dichloro-phenyl)-1-(4-{2-hydroxy-1-[4-(5-methoxy-1H-indol-3-yl)-piperidin-1-yl]-ethyl}-piperidin-1-yl)-propenone], the IC50 is 0.002 µM in the test on THP-1 cells [1], 0.007 µM against CCR2 and 0.02 µM with THP-1 cells [2].
For `O=C(/C=C/c1ccc(Cl)c(Cl)c1)N1CCC(C(CO)N2CCC(c3c[nH]c4ccccc34)CC2)CC1` (stereo not drawn) [Cpd 121, (2E)-3-(3,4-dichloro-phenyl)-1-(4-{2-hydroxy-1-[4-(1H-indol-3-yl)-piperidin-1-yl]-ethyl}-piperidin-1-yl)-propenone], in that order: 0.0001 µM, 0.0002 µM and 0.012 µM.
Consider `O=C(/C=C/c1ccc(F)c(Br)c1)N1CCC(C(CO)N2CCC(c3c[nH]c4ccc(F)cc34)CC2)CC1` (stereo not drawn) [Cpd 172, (2E)-3-(3-bromo-4-fluoro-phenyl)-1-(4-{1-[4-(5-fluoro-1H-indol-3-yl)-piperidin-1-yl]-2-hydroxy-ethyl}-piperidin-1-yl)-propenone], for which the results for the IC50 with THP-1 cells [1], on CCR2 and in the test with THP-1 cells [2] were 0.02 µM, 0.032 µM and 0.03 µM, respectively.
Consider `O=C(/C=C/c1ccc(Cl)c(Cl)c1)N1CCC(C(CO)N2CCC(c3nc4ccccc4[nH]3)CC2)CC1` (stereo not drawn) [Cpd 176, (2E)-1-(4-{1-[4-(1H-benzoimidazol-2-yl)-piperidin-1-yl]-2-hydroxy-ethyl}-piperidin-1-yl)-3-(3,4-dichloro-phenyl)-propenone], for which the IC50 is 2.61 µM with THP-1 cells [1], 0.07 µM on CCR2 and 0.09 µM with THP-1 cells [2].
For `CS(=O)(=O)Nc1ccc2[nH]cc(C3CCN(C(C(=O)O)C4CCN(C(=O)Nc5ccc(Cl)c(Cl)c5)CC4)CC3)c2c1` (stereo not drawn) [Cpd 109, [1-(3,4-dichloro-phenylcarbamoyl)-piperidin-4-yl]-[4-(5-methanesulfonylamino-1H-indol-3-yl)-piperidin-1-yl]-acetic acid], in that order: 0.03 µM, 0.02 µM and 0.03 µM.
For `O=C(c1cc2ccccc2o1)N1CCC(C(CO)N2CCC(c3c[nH]c4ccccc34)CC2)CC1` (stereo not drawn) [Cpd 154, benzofuran-2-yl-(4-{2-hydroxy-1-[4-(1H-indol-3-yl)-piperidin-1-yl]-ethyl}-piperidin-1-yl)-methanone], in that order: 4.8 µM, 0.27 µM and 0.16 µM.
As for `Cc1cc(NC(=O)N2CCC(C(C(=O)O)N3CCC(c4c[nH]c5ccccc45)CC3)CC2)ccc1F` (stereo not drawn) [Cpd 102, [1-(4-fluoro-3-methyl-phenylcarbamoyl)-piperidin-4-yl]-[4-(1H-indol-3-yl)-piperidin-1-yl]-acetic acid], the IC50 in the test on THP-1 cells [1] was 0.86 µM; against CCR2, 0.26 µM; in the test on THP-1 cells [2] it was 0.23 µM.
For `COC(=O)c1ccc2[nH]cc(C3CCN(C(C(=O)O)C4CCN(C(=O)/C=C/c5cc(F)c(F)c(F)c5)CC4)CC3)c2c1` (stereo not drawn) [Cpd 146, 3-[1-(carboxy-{1-[(2E)-3-(3,4,5-trifluoro-phenyl)-acryloyl]-piperidin-4-yl}-methyl)-piperidin-4-yl]-1H-indole-5-carboxylic acid methyl ester], in that order: 0.05 µM, 0.007 µM and 0.053 µM.
For `O=C(O)C(C1CCN(C(=O)Nc2cc(C(F)(F)F)cc(C(F)(F)F)c2)CC1)N1CCC(c2c[nH]c3ccccc23)CC1` (stereo not drawn) [Cpd 136, [1-(3,5-bis-trifluoromethyl-phenylcarbamoyl)-piperidin-4-yl]-[4-(1H-indol-3-yl)-piperidin-1-yl]-acetic acid], in that order: 0.13 µM, 0.08 µM and 0.14 µM.
